Converted amounts (≈) assume the structure as drawn. Like-named read-outs stand apart in the source and are kept apart here. Marks after values point to notes of the source that are not given here.
How the values were obtained:
[1] = test system: Kan^R S. Typhimurium in layer chickens; type: in vivo, chicken; conditions: for Reduction of Salmonella in the ceca: compared to the DMSO group; for Ceca positive for S. Typhimurium after enrichment / Livers positive for S. Typhimurium after enrichment / Spleens positive for S. Typhimurium after enrichment: n = 10 chickens per group
[2] = test system: Galleria mellonella larvae; test: Toxicity on G. mellonella larvae; type: in vivo; conditions: uninfected larvae, single treatment with 12.5 µg of SM, 72 hrs
Procedure: Galleria mellonella larvae (fifth instar stage) were incubated for 12 hrs at 37 °C in the dark. After incubation, only larvae with a white creamy phenotype and a body weight ranging between 225 to 275 mg were selected for the study. […] Larval survival was monitored on 12 hrs intervals. Not treated larvae, larvae treated with the buffer mix, and larvae treated with 12.5 µg of chloramphenicol were used as controls.

[3] = test system: biofilm embedded S. Typhimurium; test: MBEC high-throughput assay on biofilm; type: cell-based, Salmonella enterica subsp. enterica serovar Typhimurium; conditions: 18 hrs incubation; for MBC on biofilm embedded Salmonella: M9 medium; for Cidal concentration on biofilm relative to planktonic MBC: compared to planktonic dose-response in parallel
Procedure: The antimicrobial efficacy of the four SMs was tested on biofilm embedded S. Typhimurium as previously described. Briefly, 150 µl of an overnight suspension of S. Typhimurium normalized to 0.05 OD600 in LB medium was transferred into each well of a sterile, non-treated, flat bottom 96-well plate. The plate was covered using the lid containing the pegs (Innovotech), sealed with parafilm, and incubated for 36 hrs at 37 °C. […] The plate was incubated for 18 hrs at 37 °C, 110 rpm in the dark. After incubation, the pegs were transferred to a new 96-well plate containing 200 µl of sterile water and sonicated for 60 min at room temperature (Aquasonic model 50HT, VWR). Removal of the biofilm was confirmed by crystal violet staining. The supernatant was ten-fold serial diluted, plated on an agar plate, and incubated at 37 °C for 36 hrs. The lowest SM concentration giving a complete clearance was considered as MBEC. […] In parallel to this experiment, a dose-response assay with planktonic cells was conducted as described above.

[4] = test system: S. Typhimurium LT2 wild-type (WT) strain; test: Dose-response assay (MIC and MBC determination) in M9 broth; type: cell-based, Salmonella enterica subsp. enterica serovar Typhimurium; conditions: 12 hrs at 37 °C, read-out: MBC (minimal bactericidal concentration)
Procedure: Typhimurium using high-throughput screening assay in a 96-well plate format. […] Plates were incubated in a Sunrise Tecan kinetic microplate reader for 12 hrs at 37 °C and the optical density (OD) was measured at 600 nm. The percentage of growth inhibition was calculated as: […]. Cultures from wells showing no turbidimetric increase were transferred onto a XLT4 agar plate. Plates were incubated at 37 °C for 36 hrs. […] S. Typhimurium was challenged with a determined concentration of SM as described in the primary screen.

Salmonella Newport = test: Dose-response assay (MBC) on Salmonella serovars; type: cell-based; conditions: Salmonella enterica; serovar Newport, M9 broth
[5] = test system: S. Typhimurium cell content; test: Loss of 260 nm absorbing materials; type: cell-based, Salmonella enterica subsp. enterica serotype Typhimurium; conditions: 1 hr, lethal dose (5X MBC), compared to 1% DMSO control
Procedure: (§1) Figure S2. Estimation of the membrane permeability of Salmonella enterica subsp. enterica serotype Typhimurium strain JSG626 after small molecule (SM) treatment. (A) Crystal […]
(§2) Treatments were normalized based on 10 μg/ml of crystal violet solution (no uptake […]
(§3) different than the 1% DMSO control (P<0.01); n= 9. (B) Loss of 260 nm absorbing materials from S. Typhimurium cell content. 260 nm absorbing materials were measured […]
(§4) standard deviation; *: the amount of 260 nm absorbing material in supernatant was […]
(§5) Both experiments were performed as previously described (1).
(§6) (also on this page, place not known: updtae (%) (ng/µl) Crystal violet 260 nm absorbing material) […]

[6] = test system: Salmonella enterica subsp. enterica serotype Typhimurium; test: Checkerboard assay, SM and antibiotic combinations; type: cell-based; conditions: for MBC: Salmonella enterica, TYPHIMURIUM, SM alone, read-out: SM MBCalone; for Reduction of cefeprime MBC / Reduction of meropenem MBC: sub-lethal concentration of SM
Procedure: The potentiation effect of several antibiotics, commonly used to control Salmonella, was studied in a checkerboard assay. […] The MBC of each antibiotic was determined in M9 medium prior the experiment using a dose-response assay, as described above. For potentiation studies, 100 μl of a S. […] The MBC of each antibiotic was determined as described in the dose-response assay. Bacteria challenged with SMs or antibiotics alone at the same concentrations were used to determine the antibiotic-SM combination effects. […] Further, the bacterial suspension was plated on an agar medium and incubated at 37 °C for 36 hrs. The antibiotic-SM combination effect was calculated based on the determination of the fractional bactericidal concentration (FBC) as previously described[66],[67].

S. Typhimurium = type: cell-based, Salmonella enterica subsp. enterica serovar Typhimurium; conditions: lethal dose (2X MBC) on solid medium or repeated exposure to sub-lethal dose (0.75X MBC) in liquid medium
Salmonella Javiana = test: Dose-response assay (MBC) on Salmonella serovars; type: cell-based, Salmonella enterica
[7] = test system: S. Typhimurium membrane permeability; test: Crystal violet uptake assay; type: cell-based, Salmonella enterica subsp. enterica serotype Typhimurium; conditions: 1 hr, lethal dose (5X MBC); for Reduction of crystal violet uptake: compared to 1% DMSO control
Procedure: as §1, §2, §3, §4, §5, §6

Salmonella Heidelberg = test: Dose-response assay (MBC) on Salmonella serovars; type: cell-based; conditions: Salmonella enterica; serovar Heidelberg, M9 broth
[8] = test system: S. Typhimurium in HD11 cells; test: S. Typhimurium survival in infected cell lines; type: cell-based, Salmonella enterica subsp. enterica serotype Typhimurium; conditions: Salmonella enterica, internalized S. Typhimurium, 24 hrs; for IC50: estimated
Procedure: (§7) The ability of four SMs to clear S. Typhimurium was evaluated using three cell lines (Caco-2 cells, HD11, and THP-1 cells) as previously described. A multiplicity of infection (MOI) of 10 was used. Infected cells were treated with 1 µl of SMs (final concentration ranged between 100 µM and 6.25 µM) and incubated at 37 °C for 24 hrs in humidified, 5% CO2 incubator. Following incubation, cells were washed once with 1X PBS, lysed with 0.1% Triton-100X, serial ten-fold diluted in 1X PBS, and plated on agar plate. Plates were incubated at 37 °C for 24 hrs to determine the intracellular bacteria. Cells not infected and not treated, and cells infected and treated with 2% DMSO were used as controls.

[9] = test system: S. Typhimurium in Caco-2 cells; test: S. Typhimurium survival in infected cell lines; type: cell-based, Salmonella enterica subsp. enterica serotype Typhimurium; conditions: Salmonella enterica, internalized S. Typhimurium, 24 hrs; for IC50: estimated
Procedure: as §7

[10] = test system: S. Typhimurium in THP-1 cells; test: S. Typhimurium survival in infected cell lines; type: cell-based, Salmonella enterica subsp. enterica serotype Typhimurium; conditions: Salmonella enterica, internalized S. Typhimurium, 24 hrs; for IC50: estimated
Procedure: as §7

Salmonella Saint-Paul = test: Dose-response assay (MBC) on Salmonella serovars; type: cell-based, Salmonella enterica; conditions: serovar Saint-Paul, M9 broth
[11] = SM combined with nalidixic acid
[12] = compared to the DMSO-treated group

| Structure (SMILES) | Ceca positive for S. Typhimurium after enrichment [1] [%] | Livers positive for S. Typhimurium after enrichment [1] [%] | Spleens positive for S. Typhimurium after enrichment [1] [%] | Larva survival [2] [%] | MBC on biofilm embedded Salmonella [3] [µM] | MBC ([4]; Salmonella enterica) [µM] | MBC (Salmonella Newport) [µM] | Increase in 260 nm-absorbing material [5] [fold] | SM MBCcombined ([6]; SM combined with cefotaxime) | SM MBCcombined ([6]; SM combined with erythromycin) | MBC [6] [µM] | Resistance development of S. Typhimurium (S. Typhimurium) | MBC (Salmonella Javiana) [µM] | MBC (Salmonella Heidelberg) [µM] | MBC [8] [µM] | IC50 [8] [µM] | MBC [9] [µM] | IC50 [9] [µM] | MBC [10] [µM] | IC50 [10] [µM] | further results |
| --- | --- | --- | --- | --- | --- | --- | --- | --- | --- | --- | --- | --- | --- | --- | --- | --- | --- | --- | --- | --- | --- |
| CCCCCCCCCCCCCCCC[n+]1ccn(CC#N)c1 [SM3] | 80 | 60 | 50 | 85 | 15 | 25 | 50 | 7.17 | 25^c μM | 25^c μM | 25 | no resistance was observed | 25 | 50 | 50 | < 25 | 50 | 12.5 to 25 | 50 | 25 to 50 | Reduction of Salmonella in the ceca [1]: did not show any reduction; Cidal concentration on biofilm relative to planktonic MBC [3]: 0.6 X MBC; MBC [4]: 25 µM; SM MBCcombined [6, 11]: 25^c μM; Reduction of cefeprime MBC [6]: at least 5 fold; Reduction of meropenem MBC [6]: 2.5 fold; Reduction of crystal violet uptake [7]: 4.46 fold; MBC (Salmonella Saint-Paul): 50 µM |
| CC1CCC(C(C)C)C(OC(=O)Cn2c[n+](CC(=O)OC3CC(C)CCC3C(C)C)c3ccccc32)C1 (stereo not drawn) [SM1] | 90 | 40 | 50 | 66 | 40 | 50 | 100 | 2.18 | 50 µM | 50 µM | 50 | no resistance was observed | 100 | 100 | 6.25 | < 3.21 | 25 | 12.5 to 25 | 100 | < 50 | Reduction of Salmonella in the ceca [1]: did not show any reduction; Cidal concentration on biofilm relative to planktonic MBC [3]: 0.8 X MBC; Reduction of cefeprime MBC [6]: at least 5 fold; Reduction of meropenem MBC [6]: 5 fold; Reduction of crystal violet uptake [7]: 1.88 fold; MBC (Salmonella Saint-Paul): 100 µM |
| CCOc1cc(/C=N/N=C(N)N)ccc1OCc1ccc(Cl)cc1 [SM5] | 70 | 40 | 30 | 92 | 25 (≈ 8.67 µg/mL) | 25 (≈ 8.67 µg/mL) | 50 (≈ 17.3 µg/mL) | 5.25 | 25^c μM | 25^c μM | 25 | no resistance was observed | 50 (≈ 17.3 µg/mL) | 50 (≈ 17.3 µg/mL) | 25 (≈ 8.67 µg/mL) | < 12.5 | 12.5 (≈ 4.34 µg/mL) | 6.25 to 12.5 | 50 (≈ 17.3 µg/mL) | < 25 | Reduction in Salmonella population inside the ceca ([1]; 200 µg of SM per day, oral, five days): approximately 2.8 log; Reduction of cecal colonization by Salmonella [1, 12]: 30%; Reduction of spleen colonization by Salmonella [1, 12]: 25%; MBC [4]: 25 µM (≈ 8.67 µg/mL); SM MBCcombined ([6]; SM combined with cefeprime): 25^c μM; SM MBCcombined ([6]; SM combined with ciprofloxacin at the concentration in the cell before): 20^b μM; SM MBCcombined ([6]; SM combined with meropenem): 25^c μM; SM MBCcombined [6, 11]: 25^c μM; Increase in permeability (crystal violet uptake) ([7]; compared to 1% DMSO-treated cells): 2.32 fold; MBC (Salmonella Saint-Paul): 50 µM (≈ 17.3 µg/mL) |

Reference: paper PMC6127322, “Novel Imidazole and Methoxybenzylamine Growth Inhibitors Affecting Salmonella Cell Envelope Integrity and its Persistence in Chickens” (Scientific Reports, 2018)
